Each structure is given as a SMILES string. The source made the active and inactive calls. No cut-off for these calls is given here.

The values below come from ChEMBL document CHEMBL6109122 (J Med Chem, 2025).

Data set [1] deals with T1, Protein cereblon/Non-receptor tyrosine-protein kinase TYK2 (Homo sapiens, UniProt P29597+Q96SW2). As to the kind of experiment: PROTAC activity at CRBN/TYK2 in human Jurkat cells assessed as induction of degradation of TYK2 at 100 nM measured after 10 hrs by Western blot analysis relative to control. It counts as cell-based. In general terms: In western blotting, separated proteins are transferred to a membrane and probed.
Target sequence in this assay (P29597 whole entry, looked up): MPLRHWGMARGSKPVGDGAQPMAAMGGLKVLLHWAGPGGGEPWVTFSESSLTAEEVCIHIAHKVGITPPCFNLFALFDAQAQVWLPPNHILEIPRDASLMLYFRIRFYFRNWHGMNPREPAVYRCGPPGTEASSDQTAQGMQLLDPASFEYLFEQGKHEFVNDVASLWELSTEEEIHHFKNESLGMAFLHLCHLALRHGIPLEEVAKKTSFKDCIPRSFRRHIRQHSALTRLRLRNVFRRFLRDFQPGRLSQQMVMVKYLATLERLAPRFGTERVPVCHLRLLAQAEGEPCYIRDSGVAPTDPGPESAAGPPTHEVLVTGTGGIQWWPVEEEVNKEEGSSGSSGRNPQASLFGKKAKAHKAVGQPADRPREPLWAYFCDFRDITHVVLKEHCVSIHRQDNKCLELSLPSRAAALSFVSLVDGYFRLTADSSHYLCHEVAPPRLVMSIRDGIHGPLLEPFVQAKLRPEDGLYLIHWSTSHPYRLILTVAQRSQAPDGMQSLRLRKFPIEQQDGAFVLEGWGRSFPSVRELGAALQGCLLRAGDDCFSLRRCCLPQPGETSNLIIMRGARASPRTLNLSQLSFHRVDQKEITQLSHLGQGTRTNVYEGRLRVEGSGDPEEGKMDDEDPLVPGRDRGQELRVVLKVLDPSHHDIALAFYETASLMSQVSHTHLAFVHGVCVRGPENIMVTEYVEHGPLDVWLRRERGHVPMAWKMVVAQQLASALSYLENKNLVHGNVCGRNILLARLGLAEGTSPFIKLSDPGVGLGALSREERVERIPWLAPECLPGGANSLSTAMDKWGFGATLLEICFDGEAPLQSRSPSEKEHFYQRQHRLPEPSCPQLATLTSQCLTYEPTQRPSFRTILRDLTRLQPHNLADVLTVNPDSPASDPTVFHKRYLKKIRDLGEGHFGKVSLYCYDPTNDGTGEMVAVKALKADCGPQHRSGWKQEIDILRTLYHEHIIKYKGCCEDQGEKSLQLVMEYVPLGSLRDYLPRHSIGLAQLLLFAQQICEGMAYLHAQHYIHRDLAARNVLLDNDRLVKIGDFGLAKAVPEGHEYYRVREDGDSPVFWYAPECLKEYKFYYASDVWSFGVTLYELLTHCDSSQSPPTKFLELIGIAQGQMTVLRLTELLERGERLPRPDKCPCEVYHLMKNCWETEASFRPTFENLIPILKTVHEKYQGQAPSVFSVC
Target sequence in this assay (Q96SW2 whole entry, looked up): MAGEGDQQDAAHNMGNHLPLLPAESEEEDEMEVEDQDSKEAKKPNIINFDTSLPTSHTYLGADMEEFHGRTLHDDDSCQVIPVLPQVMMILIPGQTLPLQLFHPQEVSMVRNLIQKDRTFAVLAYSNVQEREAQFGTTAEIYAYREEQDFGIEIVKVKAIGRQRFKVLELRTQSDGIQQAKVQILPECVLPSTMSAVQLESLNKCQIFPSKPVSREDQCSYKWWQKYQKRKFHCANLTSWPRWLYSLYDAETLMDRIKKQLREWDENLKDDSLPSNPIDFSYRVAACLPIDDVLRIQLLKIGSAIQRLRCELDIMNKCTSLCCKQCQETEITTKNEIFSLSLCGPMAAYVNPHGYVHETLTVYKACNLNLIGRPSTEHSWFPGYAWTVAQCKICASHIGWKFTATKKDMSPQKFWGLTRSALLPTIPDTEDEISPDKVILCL

The target of data set [2] is T1, Protein cereblon/Non-receptor tyrosine-protein kinase TYK2. Description: PROTAC activity at CRBN/TYK2 in human Jurkat cells assessed as induction of degradation of TYK2 at 10 nM measured after 10 hrs by Western blot analysis relative to control. It counts as cell-based.
Target sequence in this assay (P29597 whole entry, looked up): as the sequence (P29597 whole entry, looked up) above
Target sequence in this assay (Q96SW2 whole entry, looked up): as the sequence (Q96SW2 whole entry, looked up) above
Data set [3] is described as follows: Metabolic stability in mouse liver microsomes assessed as intrinsic clearance measured up to 120 mins by LC-MS/MS analysis. It counts as ADME, Microsome. Conditions: read-out: CLH. (Microsomes from liver hold many membrane-bound enzymes, among them those of drug oxidation.)
Data set [4] can be described thus: Metabolic stability in mouse liver microsomes assessed as half life measured up to 120 mins by LC-MS/MS analysis. It counts as ADME, Microsome.
Data set [5] concerns the target T1, Protein cereblon/Non-receptor tyrosine-protein kinase TYK2. Description: PROTAC activity at CRBN/TYK2 in human Jurkat cells assessed as induction of degradation of TYK2 at 1 nM measured after 10 hrs by Western blot analysis relative to control. It counts as cell-based.
Target sequence in this assay (P29597 whole entry, looked up): as the sequence (P29597 whole entry, looked up) above
Target sequence in this assay (Q96SW2 whole entry, looked up): as the sequence (Q96SW2 whole entry, looked up) above
For data set [6] the target is unchanged. As to the kind of experiment: PROTAC activity at CRBN/TYK2 in human HaCaT cells assessed as induction of degradation of TYK2 measured after 10 hrs by Western blot analysis. It counts as cell-based. Conditions: dose 1-100 nM, tested as the 2H-labelled form.
Target sequence in this assay (P29597 whole entry, looked up): as the sequence (P29597 whole entry, looked up) above
Target sequence in this assay (Q96SW2 whole entry, looked up): as the sequence (Q96SW2 whole entry, looked up) above
A short description of data set [7]: Half life in male ICR mouse at 1 mg/kg, iv measured up to 24 hrs by LC-MS/MS analysis. It counts as ADME, organism-based. Conditions: in vivo.
A short description of data set [8]: AUC (0 to t) in male ICR mouse at 10 mg/kg, po measured up to 24 hrs by LC-MS/MS analysis. It counts as ADME, organism-based. Conditions: in vivo.
Data set [9] is described as follows: AUC (0 to infinity) in male ICR mouse at 10 mg/kg, po measured up to 24 hrs by LC-MS/MS analysis. It counts as ADME, organism-based. Conditions: in vivo.
The nature of data set [10]: Cmax in male ICR mouse at 10 mg/kg, po measured up to 24 hrs by LC-MS/MS analysis. It counts as ADME, organism-based. Conditions: in vivo.
The nature of data set [11]: Half life in male ICR mouse at 10 mg/kg, po measured up to 24 hrs by LC-MS/MS analysis. It counts as ADME, organism-based. Conditions: in vivo.
A short description of data set [12]: Tmax in male ICR mouse at 1 mg/kg, iv measured up to 24 hrs by LC-MS/MS analysis. It counts as ADME, organism-based. Conditions: in vivo.
Data set [13] can be described thus: Apparent permeability of the compound in human Caco-2 cells at 10 uM measured up to 120 min by LC-MS/MS analysis. It counts as ADME, cell-based.
Data set [14] is described as follows: Oral bioavailability in male ICR mouse at 10 mg/kg measured up to 24 hrs by LC-MS/MS analysis. It counts as ADME, organism-based. Conditions: in vivo.
Data set [15] can be described thus: AUC (0 to infinity) in male ICR mouse at 1 mg/kg, iv measured up to 24 hrs by LC-MS/MS analysis. It counts as ADME, organism-based. Conditions: in vivo.
Data set [16] in a line: Cmax in male ICR mouse at 1 mg/kg, iv measured up to 24 hrs by LC-MS/MS analysis. It counts as ADME, organism-based. Conditions: in vivo.
Data set [17] can be described thus: AUC (0 to t) in male ICR mouse at 1 mg/kg, iv measured up to 24 hrs by LC-MS/MS analysis. It counts as ADME, organism-based. Conditions: in vivo.
Data set [18] is described as follows: Tmax in male ICR mouse at 10 mg/kg, po measured up to 24 hrs by LC-MS/MS analysis. Conditions: in vivo. It counts as ADME, organism-based.
The nature of data set [19]: Inhibition of TYK2 dependent STAT3 phosphorylation in IL-6 stimulated human PBMC cells preincubated for 60 mins followed by IL-6 stimulation and measured after 60 mins by FACS assay. It counts as cell-based. A general note: In flow cytometry, cells or beads pass a laser one at a time.
A short description of data set [20]: Inhibition of TYK2 dependent STAT3 phosphorylation in IL-12 stimulated human PBMC cells preincubated for 60 mins followed by IL-12 stimulation and measured after 60 mins by FACS assay. It counts as cell-based.
The target of data set [21] is T1, Protein cereblon/Non-receptor tyrosine-protein kinase TYK2. As to the kind of experiment: PROTAC activity at CRBN/TYK2 in human Jurkat cells assessed as induction of degradation of TYK2 measured after 10 hrs by Western blot analysis. It counts as cell-based.
Target sequence in this assay (P29597 whole entry): as the sequence (P29597 whole entry, looked up) above
Target sequence in this assay (Q96SW2 whole entry): as the sequence (Q96SW2 whole entry, looked up) above
The target is the same in data set [22]. Description: PROTAC activity at CRBN/TYK2 in human Jurkat cells assessed as induction of degradation of TYK2 at 100 ug/ml measured after 10 hrs by Western blot analysis. It counts as cell-based. Conditions: dose 100.0 µg/ml.
Target sequence in this assay (P29597 whole entry, looked up): as the sequence (P29597 whole entry, looked up) above
Target sequence in this assay (Q96SW2 whole entry, looked up): as the sequence (Q96SW2 whole entry, looked up) above

Turning to `CNC(=O)c1cnc(Nc2ccc(C(=O)NCCOCCNc3cccc4c3C(=O)N(C3CCC(=O)NC3=O)C4=O)cn2)cc1Nc1cccc(-c2ncc(F)cn2)c1OC` (centres undefined), the Activity in [1] was 66%; in data set [2], 32%.
The like results for `CNC(=O)c1cnc(Nc2ccc(C(=O)NCCCCNc3ccc4c(c3)C(=O)N(C3CCC(=O)NC3=O)C4=O)cn2)cc1Nc1cccc(-c2ncc(F)cn2)c1OC` (centres undefined) were, in that order, 48% and 42%.
As to `CNC(=O)c1cnc(Nc2ccc(C(=O)NCCCCNc3cccc4c3C(=O)N(C3CCC(=O)NC3=O)C4=O)cn2)cc1Nc1cccc(-c2ncc(F)cn2)c1OC` (centres undefined), the Activity in [1] came out at 82%; in data set [2] it was 26%. In [3], the CLint scaled came to 228 mL/min/kg. For the same compound, in [4], the half-life (usually the time in which the quantity being followed falls by half) was 24 min.
On to `CNC(=O)c1cnc(Nc2ccc(C(=O)NCCCCCCCCNc3cccc4c3C(=O)N(C3CCC(=O)NC3=O)C4=O)cn2)cc1Nc1cccc(-c2ncc(F)cn2)c1OC` (centres undefined), for which the results for the Activity in data set [1] and in data set [2] were 74% and 72%, respectively.
Regarding `CNC(=O)c1cnc(Nc2ccc(C(=O)N3CCC4(CC3)CCN(c3ccc5c(c3)C(=O)N(C3CCC(=O)NC3=O)C5=O)CC4)cn2)cc1Nc1cccc(-c2ncc(F)cn2)c1OC` (centres undefined), in [5], the result was inactive. In addition, the Activity in [1] was 13%; in [2], 65%.
Take `CNC(=O)c1nnc(NC(=O)C2CC2)cc1Nc1cccc(-c2ncn(C)n2)c1OC`: the outcome in [1] (tested as the 2H-labelled form), in [2] (tested as the 2H-labelled form) and in data set [6] was inactive.
For `CNC(=O)c1cnc(Nc2ccc(C(=O)N(C)C3CCN(c4ccc5c(c4)C(=O)N(C4CCC(=O)NC4=O)C5=O)CC3)cn2)cc1Nc1cccc(-c2ncc(F)cn2)c1OC` (centres undefined), the half-life is 39.6 min in [7], 72 min in data set [11] and 41 min in [4]. For the same compound, the AUC(0-t) – broadly, the area under the concentration-time curve up to a stated or last time point – at 24 h in data set [8] is 159 ng·h/mL; in data set [17], 712 ng·h/mL. Moreover, the AUC(0-inf) (in general, total exposure, with the tail of the curve extrapolated) is 163 ng·h/mL in data set [9] and 717 ng·h/mL in data set [15]. Besides, the Cmax – broadly, the peak of the concentration-time curve – was 124 ng/mL in [10] and 1490 ng/mL in data set [16]. The Tmax (in general, the time from dosing to the highest level) amounted to 4.8 min in [12] and 18 min in data set [18]. The Papp (in general, the rate of passage across a membrane or cell layer, normalised by area and donor concentration) at 2 h, 10 µM in data set [13] is 0.26 ×10⁻⁶ cm/s. The bioavailability (in general, the share of a dose that reaches the circulation, judged against a reference dose that is usually intravenous) in data set [14] stood at 2.2%.
In the case of `CNC(=O)c1cnc(Nc2ccc(C(=O)NCCOCCOCCNc3cccc4c3C(=O)N(C3CCC(=O)NC3=O)C4=O)cn2)cc1Nc1cccc(-c2ncc(F)cn2)c1OC` (centres undefined), the figures for the Activity in [1] and in data set [2] were 56% and 5%, respectively.
On to `CNC(=O)c1cnc(Nc2ccc(C(=O)N3CC4(CC(Nc5ccc6c(c5)C(=O)N(C5CCC(=O)NC5=O)C6=O)C4)C3)cn2)cc1Nc1cccc(-c2ncc(F)cn2)c1OC` (centres undefined), for which the Activity in data set [5] is 17%; in data set [1], 48%; in data set [2], 62%.
Turning to `CNC(=O)c1cnc(Nc2ccc(C(=O)NCCCCCCNc3cccc4c3C(=O)N(C3CCC(=O)NC3=O)C4=O)cn2)cc1Nc1cccc(-c2ncc(F)cn2)c1OC` (centres undefined), the Activity in [1] was found to be 69%; in data set [2], 48%.
As to `[2H]C([2H])([2H])NC(=O)c1nnc(NC(=O)C2CC2)cc1Nc1cccc(-c2ncn(C)n2)c1OC` [DEUCRAVACITINIB], the IC50 – broadly, the concentration that gives 50% inhibition – in data set [19] turned out to be 405 nM; in data set [20] it was 7.4 nM.
As for `CNC(=O)c1cnc(Nc2ccc(C(=O)NCCCCCNc3cccc4c3C(=O)N(C3CCC(=O)NC3=O)C4=O)cn2)cc1Nc1cccc(-c2ncc(F)cn2)c1OC` (centres undefined), the figures for the Activity in data set [1] and in [2] were 94% and 86%, respectively. In data set [21], the DC50 (commonly the concentration at which degradation of the target reaches its halfway point) came to 0.43 nM.
Turning to `CNC(=O)c1cnc(Nc2ccc(C(=O)NCCCCCNc3ccc4c(c3)C(=O)N(C3CCC(=O)NC3=O)C4=O)cn2)cc1Nc1cccc(-c2ncc(F)cn2)c1OC` (centres undefined), the Activity in [1] was found to be 65%; in [2], 88%. Further, in [3], the CLint scaled stood at 365 mL/min/kg. Also, the half-life in data set [4] worked out at 15 min.
Consider `CNC(=O)c1cnc(Nc2ccc(C(=O)NCCCCCCNc3ccc4c(c3)C(=O)N(C3CCC(=O)NC3=O)C4=O)cn2)cc1Nc1cccc(-c2ncc(F)cn2)c1OC` (centres undefined), for which the Activity in data set [1] turned out to be 62%; in data set [2], 46%.
`C[C@@H]1C[C@@H]([C@H](O)CC2CC(=O)NC(=O)C2)C(=O)[C@@H](C)C1`: the outcome in data set [22] was Active.
With `CNC(=O)c1cnc(Nc2ccc(C(=O)N3CCN(C4CCN(c5ccc6c(c5)C(=O)N(C5CCC(=O)NC5=O)C6=O)CC4)CC3)cn2)cc1Nc1cccc(-c2ncc(F)cn2)c1OC` (centres undefined), in [5], the outcome was inactive. Further, the Activity in [1] was determined as 7%; in data set [2], 17%.
On the same counts, the results for `CNC(=O)c1cnc(Nc2ccc(C(=O)N3CCC(CNc4ccc5c(c4)C(=O)N(C4CCC(=O)NC4=O)C5=O)CC3)cn2)cc1Nc1cccc(-c2ncc(F)cn2)c1OC` (centres undefined) are 7%, 10% and 35%.
Turning to `CNC(=O)c1cnc(Nc2ccc(C(=O)NCCCNc3cccc4c3C(=O)N(C3CCC(=O)NC3=O)C4=O)cn2)cc1Nc1cccc(-c2ncc(F)cn2)c1OC` (centres undefined), the Activity in data set [1] worked out at 21%; in [2] it was 18%.
With `CNC(=O)c1cnc(Nc2ccc(C(=O)N3CC4(CCN(c5ccc6c(c5)C(=O)N(C5CCC(=O)NC5=O)C6=O)CC4)C3)cn2)cc1Nc1cccc(-c2ncc(F)cn2)c1OC` (centres undefined), the Activity was found to be 42% in data set [5], 61% in data set [1] and 69% in data set [2].
On the same counts, the results for `CNC(=O)c1cnc(Nc2ccc(C(=O)N3CCC(CN4CCN(c5ccc6c(c5)C(=O)N(C5CCC(=O)NC5=O)C6=O)CC4)CC3)cn2)cc1Nc1cccc(-c2ncc(F)cn2)c1OC` (centres undefined) are 2%, “inactive” and 78%.
In the case of `CNC(=O)c1cnc(NC2CCN(CC3CCN(c4ccc5c(c4)C(=O)N(C4CCC(=O)NC4=O)C5=O)CC3)CC2)cc1Nc1cccc(-c2ncc(F)cn2)c1OC` (centres undefined), the Papp at 2 h, 10 µM in [13] is < 0.1 ×10⁻⁶ cm/s. Also, the half-life in [4] stood at 62 min.
Consider `CNC(=O)c1cnc(Nc2ccc(C(=O)N3CC4(C3)CN(c3ccc5c(c3)C(=O)N(C3CCC(=O)NC3=O)C5=O)C4)cn2)cc1Nc1cccc(-c2ncc(F)cn2)c1OC` (centres undefined), for which the values for the Activity in data set [5], in data set [1] and in [2] were 46%, 68% and 83%, respectively. In addition, in data set [3], the CLint scaled is 53 mL/min/kg. Also, the half-life in data set [4] amounted to 104 min.
Regarding `CNC(=O)c1cnc(Nc2ccc(C(=O)NCCNc3cccc4c3C(=O)N(C3CCC(=O)NC3=O)C4=O)cn2)cc1Nc1cccc(-c2ncc(F)cn2)c1OC` (centres undefined), the Activity in data set [1] turned out to be 15%; in data set [2], 12%.
As for `CNC(=O)c1cnc(Nc2ccc(C(=O)N3CC(N4CCN(c5ccc6c(c5)C(=O)N(C5CCC(=O)NC5=O)C6=O)CC4)C3)cn2)cc1Nc1cccc(-c2ncc(F)cn2)c1OC` (centres undefined), the values for the Activity in data set [5], in [1] and in [2] were 44%, 67% and 77%, respectively.
